For data set [1] the following is noted: 293.15 K; 101.33 kPa; Liquid.
A short description of data set [2]: refractive index (Na D-line) (dimensionless). The settings on record: 293.15 K; 101.33 kPa; Liquid; Standard Abbe refractometry.

Numbers after ± are expanded uncertainties.

`CO` [methanol]: in data set [1], the mass density is 791 ± 1 kg/m3. Moreover, the refractive index in data set [2] turned out to be 1.3287 ± 0.0007.

As for `CCOCCO` [2-ethoxyethan-1-ol], the mass density in data set [1] worked out at 929 ± 1 kg/m3. The refractive index in data set [2] is given as 1.4065 ± 0.0007.

With `CC(C)=O` [acetone], the mass density in data set [1] stood at 790 ± 1 kg/m3. In data set [2], the refractive index came to 1.359 ± 0.0007.

As to `CCO` [ethanol], the mass density in data set [1] turned out to be 789 ± 1 kg/m3. Besides, in data set [2], the refractive index came out at 1.3619 ± 0.0007.

Values taken from the NIST ThermoML archive (doi:10.1021/je700404u).
